The source of these data is patent US20230285441A1, “TREATMENT OF C[…] AURANOFIN” (GEORGIA STATE UNIVERSITY RESEARCH FOUNDATION, INC., priority 2020, published 2023).

For series [1], the system named is IL-6, IL-1β, TNFα and NF-kB. Kind of series: mRNA expression of SARS-CoV-2-induced cytokines in Huh7 cells by qRT-PCR. Type of series: cell-based, human.
Series [2] concerns SARS-CoV-2 (USA-WA1/2020). Nature of the series: SARS-CoV-2 infectivity titers in cell culture supernatants by plaque assay. Type of series: cell-based. The following applies: 4 µM auranofin, Huh7 cells, 48 hours after infection.
For another series, the system named is Huh7 cells. The settings on record: 0.1-10 µM for 48 hours, trypan blue.
The mark [3] stands for this setting: 4 µM auranofin, SARS-CoV-2 infected Huh7 cells.

As for `CC[P](CC)(CC)=[Au][S][C@@H]1OC(COC(C)=O)[C@@H](OC(C)=O)C(OC(C)=O)C1OC(C)=O` (stereo partly drawn) [auranofin, 1-Thio-β-D-glucopyranosatotriethylphosphine gold-2,3,4,6-tetraacetate], in series [1], the “increase in TNF-α levels (mRNA)” value is recorded as “absent”. In series [1] (setting [3]), the “increase in the expression of IL-1β (mRNA)” value is “no increase” and the “increase in the expression of NF-kB (mRNA)” value is given as “no increase”. In addition, the “SARS-COV-2 infectivity titers in cell culture supernatants” value in series [2] was “significantly reduced”. Besides, the “cytotoxic concentration of 50%” value with Huh7 cells was “approximately 5.7 µM”.
